Experimental data published in patent US20250129329A1, “CULTURE MEDIUM FOR HEPATOMA ORGANOID CULTURE, HEPATOMA ORGANOID CULTURE METHOD, AND APPLICATION THEREOF” (PRECEDO PHARMACEUTICALS CO., LTD, priority 2021, published 2025).

Tests used:
Format in all cases: cell-based, human
[1] = tested on: hepatoma organoids (sample GL-006); experiment: Drug screening on hepatoma organoids, CellTiter-Glo viability and microscopy (Example 5); conditions: for inhibitory effect on the growth of hepatoma organoids (drug inhibition rate): two concentrations (1 and 0.1 mM stocks diluted 1000 times), 5 days, CellTiter-Glo, FIG. 5B; for growth of organoids after drug treatment (photos): after 5 days of drug treatment, microscope photos, FIG. 5A
Description: Primary liver cancer cells were isolated from liver cancer intraoperative sample (GL-006) according to the method described in Section (2), Example 1, and were cultured to obtain organoids by using HC-3 culture medium until the diameters of hepatoma organoids exceeded 50 μm, which were then used for drug screening.
Prepare Three drugs with two concentration gradients were prepared according to the table below (Bortezomib, Aclarubicin, and Doxorubicin; all purchased from MCE) and store for use.
The prepared drugs were taken out and placed at room temperature. The drugs were diluted 1000 times with HC-3 culture medium for later use. The organoids cultured and obtained according to step (1) were taken out from the incubator, the culture mediums were removed from the wells, and the culture mediums containing drugs were slowly added into the wells along the well wall. After the addition of drug, disinfect the surface of the 96-well plate was sterilized and then was transferred to the incubator for further cultivation. After 5 days, the viability of organoids were measured.
CellTiter-Glo luminescent reagent (purchased from Promega) was taken out from a 4° C. refrigerator, and 10 mL of the reagent was added into the loading slot; the 96-well plate for testing was taken out from the incubator, and 20 μL CellTiter-Glo luminescent reagent was added into each well. After standing for 10 minutes followed by mixing well, the test was conducted by using a multi-functional microplate reader (Envision, Perkin Elmer).

[2] = tested on: hepatoma organoids isolated from liver cancer tissue; experiment: Effects of medium additives on proliferation of hepatoma organoids (Example 1); conditions: additive in basic medium at the final concentration; organoid diameters after 7 days compared with Basic Medium
Description: First, a basic medium containing initial medium was prepared. […] In this embodiment, the formulation of the basic medium is: DMEM/F12 medium (purchased from Corning)+100 μg/mL Primocin (purchased from InvivoGen, 0.2% (v/v), commercial product has a concentration of 50 mg/ml).
Different types of additives (see Table 1) were added to the basic medium to prepare culture mediums for hepatoma organoid with different components.
Tissue samples (intraoperative) of liver cancer solid tumor were obtained from patients by professional medical practitioner of professional medical institutions, and all patients have signed the informed consent. Intraoperative samples having the size of 0.25 cm3 were stored and transported using commercial tissue preservation solution (manufacturer: Miltenyi Biotec).
• 3.1. Tissue samples were transferred from the ultra-clean workbench to a culture dish, and the tissue with blood was removed. The tissue samples were rinsed twice with basic medium, and then were transferred to another culture dish and mechanically cut with a sterile scalpel into tissue blocks of 1×1×1 mm3 in size. • 3.2. The cut intraoperative tissues were aspirated into a 15 mL centrifuge tube, to which 5 mL of basic medium was added, fully mixed, and then centrifuged at 1500 rpm for 4 minutes. • 3.3. The supernatant was discarded, and the resultant was added with 1:3 mixture of basic medium and tissue digestion solution (the amount of tissue digestion solution added was about 10 mL tissue digestion solution for 1 g of tumor tissue). The samples were marked with names and numbers, sealed with sealing film, and then digested in a shaker (Zhichu Instrument ZQLY-180N) at 37° C., 300 rpm. The completion of digestion was determined via observation every 30 minutes, based on the existing of visible particles or not. • 3.4. After the digestion was completed, undigested tissue mass was filtered out through a […] filter mash. The tissue mass on the filter mash was rinsed into the centrifuge tube with basic medium to reduce cell loss. The resultant was centrifuged at 25° C., 1500 rpm for 4 minutes. • 3.5. […] If there were blood cells, 8 mL blood cell lysate (purchased from Sigma) was added in the resultant and fully mixed, lysed at 4° C. for 20 minutes, with inverting and mixing once during the process. The resultant was centrifuged at 25° C., 1500 rpm for 4 minutes. • 3.6. The supernatant was discarded and 2 mL basic medium was added to resuspend the cells for reserve.
• 4.1 Microscopic observation: a small amount of resuspended cells were plated in a culture dish, and the density and morphology of cancer cells were observed under a microscope (CNOPTEC, BDS400); • 4.2 Viable cell counting: 12 μL of the resuspended cell suspension was fully mixed with 12 μL of trypan blue staining solution (Manufacturer: Sangon Biotech (Shanghai) Co., Ltd.), and then 20 μL of the mixture was added into a cell counting plate (Manufacturer: Countstar, specifications: 50 pieces/box).
The primary liver cancer cells obtained in the above steps were resuspended with pre-cooled DMEM/F12 and counted. The cell density was diluted to 5-10×10^6 cells/mL and 400 μL of the diluted cell suspension was added with an equal volume of Matrigel matrix gel (Corning) and mixed gently and well. Then, the mixture was inoculated at 5 μL/well onto a 96-well plate. The inoculated plate was placed into an incubator for 30 minutes until Matrigel is completely coagulated. Then, the culture mediums as shown in Table 1 that have been come to room temperature in advance were added, respectively, and the culture mediums were renewed every three days for expansion and cultivation. After 7 days, the cultured organoids were photographed and the diameters of the organoids were measured and compiled, so as to compare the promoting effects of various factors on the proliferation of hepatoma organoids. As the experimental control, the basic medium without any additives was used.

[3] = tested on: hepatoma organoids (samples GL-003, GL-004); experiment: Effects of different concentrations of factors in the culture medium on proliferation of hepatoma organoids (Example 2); conditions: added to HC-3 medium lacking that factor; organoid diameter ratio to Blank Control after 10 days, FIGS. 1A-1K
Description: Primary liver cancer cells were obtained from intraoperative tissue samples (Nos. GL-003, GL-004) in accordance with the method described in Section (2), Example 1, and the organoids were cultured using the culture medium formulations as shown in Table 2 below.
When using the culture medium of Formulation 1, to a 96-well plate inoculated with organoids was added the prepared B27 in addition to the medium of Formulation 1, with 200 μL per well, such that the final concentrations of B27 were 1:25, 1:50 and 1:100, respectively; a well of Blank Control (BC) was set using the medium of Formulation 1. The final concentrations of other factors added in this series of culture mediums were the same as those in HC-3 culture medium. The experiments of Formulations 1-11 below were also conducted in the same way and will not be described in details.
(§1) When using the culture medium of Formulation 2, to a 96-well plate inoculated with organoids was added the prepared HGF in addition to the medium of Formulation 2, with 200 μL per well, such that the final concentrations of HGF were 1 ng/ml, 5 ng/mL and 25 ng/mL, respectively; a well of Blank Control (BC) was set using the medium of Formulation 2.
as §1, with “3,” for “2,”, “ITS cell culture additive” for “HGF”, “1:300, 1:100” for “1 ng/ml, 5 ng/mL”, “1:30,” for “25 ng/mL,”, “3.” for “2.”
as §1, with “4,” for “2,”, “Y27632” for “HGF”, “3 μM, 10 μM” for “1 ng/ml, 5 ng/mL”, “30 μM,” for “25 ng/mL,”, “4.” for “2.”
as §1, with “6,” for “2,”, “NRG1” for “HGF”, “ng/ml” for “ng/mL”, “ng/ml,” for “ng/mL,”, “6.” for “2.”
as §1, with “7,” for “2,”, “insulin” for “HGF”, “µL” for “μL”, “μg/mL, 3 μg/mL” for “ng/ml, 5 ng/mL”, “10 μg/mL,” for “25 ng/mL,”, “7.” for “2.”
as §1, with “8,” for “2,”, “EGF” for “HGF”, “2” for “1”, “6 ng/ml” for “5 ng/mL”, “18 ng/ml,” for “25 ng/mL,”, “8.” for “2.”
as §1, with “9,” for “2,”, “GlutaMAX” for “HGF”, “1:300, 1:100” for “1 ng/ml, 5 ng/mL”, “1:30,” for “25 ng/mL,”, “9. […]” for “2.”

Row | Compound | inhibitory effect on the growth of hepatoma organoids (drug inhibition rate) [1] | growth of organoids after drug treatment (photos) [1] | Level of promoting proliferation [2] | preferable amount in the culture medium for promoting organoid proliferation [3]
1 | COc1cccc2c1C(=O)c1c(O)c3c(c(O)c1C2=O)C[C@@](O)(C(=O)CO)C[C@@H]3O[C@H]1C[C@H](N)[C@H](O)[C@H](C)O1 [Doxorubicin] | no inhibitory effect |  |  | 
2 | CC[C@@]1(O)C[C@H](O[C@H]2C[C@H](N(C)C)[C@H](O[C@H]3C[C@H](O)[C@H](O[C@H]4CCC(=O)[C@H](C)O4)[C@H](C)O3)[C@H](C)O2)c2c(cc3c(c2O)C(=O)c2c(O)cccc2C3=O)[C@H]1C(=O)OC [Aclarubicin] | varied significantly | significantly inhibited |  | 
3 | C[C@@H](N)[C@H]1CC[C@H](C(=O)Nc2ccncc2)CC1 [Compound Y27632] |  |  | + | 3 to 30 µM
4 | Cc1c[nH]c(-c2cnc(NCCNc3ccc(C#N)cn3)nc2-c2ccc(Cl)cc2Cl)n1 [CHIR99021] |  |  | − | 
5 | C[C@@H]1C[C@H]2[C@@H]3CCC4=CC(=O)C=C[C@]4(C)[C@@]3(F)[C@@H](O)C[C@]2(C)[C@@]1(O)C(=O)CO [dexamethasone] |  |  |  | 0.1 to 1 µM
6 | CN1C(=O)C(c2c(F)cccc2F)N(C)c2nc(Nc3ccc(S(N)(=O)=O)cc3)ncc21 (stereo not shown) [Compound 1, 4-((7-(2,6-Difluorophenyl)-5,8-dimethyl-6-oxo-5,6,7,8-tetrahydropteridin-2-yl)amino)benzsulfamide] |  |  | + | 2.5 to 10 µM
7 | Oc1ccc(-c2nc(-c3ccncc3)c(-c3ccc(F)cc3)[nH]2)cc1 [SB202190] |  |  | − | 
8 | Cc1cccc(-c2nn(C(=S)Nc3ccccc3)cc2-c2ccnc3ccccc23)n1 [Compound A8301] |  |  | − | 
9 | basic fibroblast growth factor, bFGF: growth factor medium additive, supplier R&D |  |  | − | 
10 | CC(C)C[C@H](NC(=O)[C@H](Cc1ccccc1)NC(=O)c1cnccn1)B(O)O [Bortezomib] | strong inhibitory effects | significantly inhibited |  | 
11 | hepatocyte growth factor, HGF: growth factor medium additive, supplier R&D |  |  | + | 
12 | insulin: medium additive, supplier Peprotech |  |  | + | 1 to 10 µg/mL
13 | epidermal growth factor, EGF: growth factor medium additive, supplier R&D (NSDSECPLSHDGYCLHDGVCMYIEALDKYACNCVVGYIGERCQYRDLKWWELR; Epidermal growth factor; UniProt P01133 971-1023, looked up) |  |  | + | 0.002 to 0.018 µg/mL
